Several values for one entry are separate records, joined by “and”; a condition that tells them apart may be missing. Equal entries are not always repeated.
How the values were obtained:
Test in all cases: Kinase inhibition screen, cell-free 33P ATP assay at 10 μM
Assay type in all cases: biochemical
[1] = target: T1, 140 purified human kinases (Homo sapiens, UniProt O00141)
T1 sequence (O00141 1-431): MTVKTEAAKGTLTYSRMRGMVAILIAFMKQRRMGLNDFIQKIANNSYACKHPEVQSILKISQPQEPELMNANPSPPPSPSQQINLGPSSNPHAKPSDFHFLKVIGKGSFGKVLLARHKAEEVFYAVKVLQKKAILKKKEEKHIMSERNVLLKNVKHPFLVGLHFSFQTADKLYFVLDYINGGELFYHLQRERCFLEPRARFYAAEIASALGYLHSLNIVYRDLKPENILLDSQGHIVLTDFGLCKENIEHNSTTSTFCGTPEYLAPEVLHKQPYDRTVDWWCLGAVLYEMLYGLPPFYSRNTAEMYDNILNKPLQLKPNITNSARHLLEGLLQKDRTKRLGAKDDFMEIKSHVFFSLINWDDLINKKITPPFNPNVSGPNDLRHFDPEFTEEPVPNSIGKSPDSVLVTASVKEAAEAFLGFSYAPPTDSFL
Description: (§1) [L2Cu3]^6+ and [L2Zn3]^6+ were submitted to the MRC Protein Phosphorylation and Ubiquitination Unit International Centre for Kinase Profiling (University of Dundee) and tested in duplicate (at 10 μM) against a series of 140 purified human kinases in a cell-free kinase assay using ^33P ATP[55],[56]. The kinase gene IDs from the screen were then translated into common IDs (HGNC symbol) using biomaRt package[57],[58] in R[59] and R Studio[60] and used as input to the KinMap programme.

[2] = target: T2, 140 purified human kinases (Homo sapiens, UniProt O43318)
T2 sequence (O43318 1-606): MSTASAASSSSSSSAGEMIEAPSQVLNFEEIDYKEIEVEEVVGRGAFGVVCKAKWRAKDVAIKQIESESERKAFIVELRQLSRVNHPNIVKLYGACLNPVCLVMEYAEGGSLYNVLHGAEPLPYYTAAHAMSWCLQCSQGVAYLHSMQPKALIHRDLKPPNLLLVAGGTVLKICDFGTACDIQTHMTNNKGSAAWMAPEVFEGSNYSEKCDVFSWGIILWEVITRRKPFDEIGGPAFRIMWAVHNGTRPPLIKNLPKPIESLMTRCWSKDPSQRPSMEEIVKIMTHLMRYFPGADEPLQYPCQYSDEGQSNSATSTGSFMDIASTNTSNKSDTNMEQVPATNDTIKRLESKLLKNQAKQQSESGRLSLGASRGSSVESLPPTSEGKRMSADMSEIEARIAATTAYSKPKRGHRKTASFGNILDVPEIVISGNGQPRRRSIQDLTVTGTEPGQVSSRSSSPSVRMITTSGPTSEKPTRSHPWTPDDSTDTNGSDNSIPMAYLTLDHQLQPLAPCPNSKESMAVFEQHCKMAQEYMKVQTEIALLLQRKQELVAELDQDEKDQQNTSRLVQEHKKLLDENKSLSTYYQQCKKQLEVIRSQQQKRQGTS
Description: as §1

[3] = target: 140 purified human kinases (Homo sapiens, UniProt P17612); settings: PKA
Description: as §1

[4] = target: 140 purified human kinases (Homo sapiens, UniProt P28482)
Description: as §1

[5] = target: 140 purified human kinases (Homo sapiens, UniProt P80192)
Description: as §1

[6] = target: 140 purified human kinases (Homo sapiens, UniProt Q06187); settings: BTK
Description: as §1

[7] = target: 140 purified human kinases (Homo sapiens, UniProt Q15759); settings: p38b MAPK
Description: as §1

[8] = target: 140 purified human kinases (Homo sapiens, UniProt Q16513)
Description: as §1

[9] = target: 140 purified human kinases (Homo sapiens, UniProt Q9H0K1)
Description: as §1

[10] = target: 140 purified human kinases (Homo sapiens, UniProt Q9H2X6)
Description: as §1

140 purified human kinases (Homo sapiens, UniProt Q9H2X6), sequence (Q9H2X6 whole entry): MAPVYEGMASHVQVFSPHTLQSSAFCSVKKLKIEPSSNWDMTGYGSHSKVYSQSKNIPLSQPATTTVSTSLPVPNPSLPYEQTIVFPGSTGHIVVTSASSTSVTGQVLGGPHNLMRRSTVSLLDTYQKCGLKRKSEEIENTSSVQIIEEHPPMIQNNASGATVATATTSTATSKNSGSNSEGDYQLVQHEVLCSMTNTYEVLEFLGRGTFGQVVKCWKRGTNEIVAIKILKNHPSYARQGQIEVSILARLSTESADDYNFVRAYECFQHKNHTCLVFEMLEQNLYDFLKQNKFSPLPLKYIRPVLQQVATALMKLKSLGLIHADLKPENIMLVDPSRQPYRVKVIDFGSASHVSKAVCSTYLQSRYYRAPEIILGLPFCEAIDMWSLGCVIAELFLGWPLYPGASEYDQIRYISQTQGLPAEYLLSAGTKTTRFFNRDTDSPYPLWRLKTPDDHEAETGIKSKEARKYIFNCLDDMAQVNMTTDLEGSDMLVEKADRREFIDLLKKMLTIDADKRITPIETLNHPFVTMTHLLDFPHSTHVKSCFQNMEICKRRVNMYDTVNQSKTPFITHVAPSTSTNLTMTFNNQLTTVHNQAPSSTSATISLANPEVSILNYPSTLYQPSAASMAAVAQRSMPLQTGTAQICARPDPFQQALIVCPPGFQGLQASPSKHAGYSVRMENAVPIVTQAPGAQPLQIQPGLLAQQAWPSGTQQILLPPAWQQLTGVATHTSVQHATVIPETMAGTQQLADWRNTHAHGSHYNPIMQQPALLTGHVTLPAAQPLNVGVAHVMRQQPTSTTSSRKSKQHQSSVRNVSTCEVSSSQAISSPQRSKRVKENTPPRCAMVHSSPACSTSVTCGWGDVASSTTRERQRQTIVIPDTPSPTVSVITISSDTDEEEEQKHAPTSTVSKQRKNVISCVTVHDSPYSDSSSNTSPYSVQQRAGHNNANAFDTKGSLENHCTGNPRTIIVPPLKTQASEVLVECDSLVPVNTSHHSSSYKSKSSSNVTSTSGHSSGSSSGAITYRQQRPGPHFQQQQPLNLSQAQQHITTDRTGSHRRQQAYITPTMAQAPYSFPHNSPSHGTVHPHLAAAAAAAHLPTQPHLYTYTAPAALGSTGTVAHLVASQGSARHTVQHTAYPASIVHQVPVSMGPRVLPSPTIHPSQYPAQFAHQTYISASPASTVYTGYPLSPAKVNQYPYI
140 purified human kinases (Homo sapiens, UniProt P28482), sequence (P28482 whole entry): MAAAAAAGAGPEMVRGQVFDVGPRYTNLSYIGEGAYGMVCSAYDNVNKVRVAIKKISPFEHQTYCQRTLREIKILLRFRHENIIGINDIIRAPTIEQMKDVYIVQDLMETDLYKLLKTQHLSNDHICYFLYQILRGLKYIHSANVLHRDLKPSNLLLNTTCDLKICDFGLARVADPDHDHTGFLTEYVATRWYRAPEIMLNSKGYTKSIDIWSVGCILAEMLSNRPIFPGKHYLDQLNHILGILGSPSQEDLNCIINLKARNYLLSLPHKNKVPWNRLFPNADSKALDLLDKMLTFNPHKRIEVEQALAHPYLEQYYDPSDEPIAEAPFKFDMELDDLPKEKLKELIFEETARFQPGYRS
140 purified human kinases (Homo sapiens, UniProt P80192), sequence (P80192 whole entry): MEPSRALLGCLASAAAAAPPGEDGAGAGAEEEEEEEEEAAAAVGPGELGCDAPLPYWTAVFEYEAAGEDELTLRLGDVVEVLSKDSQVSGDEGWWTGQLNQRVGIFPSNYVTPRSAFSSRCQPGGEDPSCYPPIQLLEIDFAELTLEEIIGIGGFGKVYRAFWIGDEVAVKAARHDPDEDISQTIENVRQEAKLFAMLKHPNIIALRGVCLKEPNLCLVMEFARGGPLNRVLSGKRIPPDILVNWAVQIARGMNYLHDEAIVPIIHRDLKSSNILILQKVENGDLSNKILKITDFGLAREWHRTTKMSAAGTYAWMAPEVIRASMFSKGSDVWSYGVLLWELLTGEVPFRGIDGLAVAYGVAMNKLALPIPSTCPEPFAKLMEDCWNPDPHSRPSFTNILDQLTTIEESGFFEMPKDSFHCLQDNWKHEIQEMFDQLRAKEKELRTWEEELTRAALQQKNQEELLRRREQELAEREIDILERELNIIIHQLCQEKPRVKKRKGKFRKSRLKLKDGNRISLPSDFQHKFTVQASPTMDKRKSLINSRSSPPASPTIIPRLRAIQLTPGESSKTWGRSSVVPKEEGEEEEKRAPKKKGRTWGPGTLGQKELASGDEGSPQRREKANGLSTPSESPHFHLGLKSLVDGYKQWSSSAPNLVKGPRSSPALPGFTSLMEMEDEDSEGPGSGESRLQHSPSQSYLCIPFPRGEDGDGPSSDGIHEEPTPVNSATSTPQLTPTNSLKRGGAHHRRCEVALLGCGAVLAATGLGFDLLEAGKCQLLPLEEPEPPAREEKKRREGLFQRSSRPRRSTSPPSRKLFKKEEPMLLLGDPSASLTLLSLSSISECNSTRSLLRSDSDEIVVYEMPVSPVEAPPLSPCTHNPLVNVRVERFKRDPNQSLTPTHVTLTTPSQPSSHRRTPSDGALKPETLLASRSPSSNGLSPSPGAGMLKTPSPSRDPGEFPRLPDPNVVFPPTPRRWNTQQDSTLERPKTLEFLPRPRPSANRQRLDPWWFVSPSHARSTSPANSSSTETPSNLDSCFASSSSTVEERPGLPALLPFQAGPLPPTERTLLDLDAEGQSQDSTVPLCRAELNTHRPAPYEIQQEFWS
140 purified human kinases (Homo sapiens, UniProt Q06187), sequence (Q06187 whole entry): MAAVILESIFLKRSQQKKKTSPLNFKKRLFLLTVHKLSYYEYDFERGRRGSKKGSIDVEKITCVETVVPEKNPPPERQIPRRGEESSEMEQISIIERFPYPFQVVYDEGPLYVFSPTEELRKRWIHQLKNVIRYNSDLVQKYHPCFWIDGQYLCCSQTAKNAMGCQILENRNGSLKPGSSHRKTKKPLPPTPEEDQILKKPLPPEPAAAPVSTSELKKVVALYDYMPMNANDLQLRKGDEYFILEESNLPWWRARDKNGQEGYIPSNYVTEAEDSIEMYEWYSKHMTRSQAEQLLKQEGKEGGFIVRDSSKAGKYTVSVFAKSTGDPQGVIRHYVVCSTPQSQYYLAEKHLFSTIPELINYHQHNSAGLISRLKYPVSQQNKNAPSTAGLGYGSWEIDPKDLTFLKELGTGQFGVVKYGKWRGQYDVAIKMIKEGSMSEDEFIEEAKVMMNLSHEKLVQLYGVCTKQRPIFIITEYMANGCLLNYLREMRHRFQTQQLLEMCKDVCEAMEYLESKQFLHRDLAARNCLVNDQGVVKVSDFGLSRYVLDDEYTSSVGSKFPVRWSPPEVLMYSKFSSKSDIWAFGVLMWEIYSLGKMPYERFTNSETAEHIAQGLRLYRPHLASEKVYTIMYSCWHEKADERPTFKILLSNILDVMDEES
140 purified human kinases (Homo sapiens, UniProt Q9H0K1), sequence (Q9H0K1 whole entry): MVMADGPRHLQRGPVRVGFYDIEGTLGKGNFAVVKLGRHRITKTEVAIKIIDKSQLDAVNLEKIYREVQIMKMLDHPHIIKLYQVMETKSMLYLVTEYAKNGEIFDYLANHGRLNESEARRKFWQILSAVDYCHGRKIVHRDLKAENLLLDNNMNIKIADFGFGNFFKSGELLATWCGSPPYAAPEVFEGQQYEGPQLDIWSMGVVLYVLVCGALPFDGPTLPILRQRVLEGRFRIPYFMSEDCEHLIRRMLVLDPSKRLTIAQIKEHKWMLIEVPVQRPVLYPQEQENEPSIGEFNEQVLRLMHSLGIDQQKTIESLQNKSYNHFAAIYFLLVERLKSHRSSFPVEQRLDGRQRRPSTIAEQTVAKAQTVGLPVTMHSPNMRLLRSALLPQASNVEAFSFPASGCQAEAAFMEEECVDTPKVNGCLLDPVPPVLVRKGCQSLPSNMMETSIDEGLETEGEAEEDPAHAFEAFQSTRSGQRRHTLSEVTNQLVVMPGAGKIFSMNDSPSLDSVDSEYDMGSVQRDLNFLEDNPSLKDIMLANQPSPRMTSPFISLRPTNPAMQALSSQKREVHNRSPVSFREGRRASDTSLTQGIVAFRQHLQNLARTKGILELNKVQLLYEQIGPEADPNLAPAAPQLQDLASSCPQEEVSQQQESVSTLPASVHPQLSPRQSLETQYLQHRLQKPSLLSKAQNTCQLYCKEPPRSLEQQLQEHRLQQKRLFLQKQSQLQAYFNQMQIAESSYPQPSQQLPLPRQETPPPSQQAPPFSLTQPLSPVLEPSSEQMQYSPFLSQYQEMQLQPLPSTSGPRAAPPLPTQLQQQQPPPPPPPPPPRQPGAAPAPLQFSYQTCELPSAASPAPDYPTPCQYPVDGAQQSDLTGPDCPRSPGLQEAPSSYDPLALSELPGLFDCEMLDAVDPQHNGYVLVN
140 purified human kinases (Homo sapiens, UniProt Q15759), sequence (Q15759 whole entry): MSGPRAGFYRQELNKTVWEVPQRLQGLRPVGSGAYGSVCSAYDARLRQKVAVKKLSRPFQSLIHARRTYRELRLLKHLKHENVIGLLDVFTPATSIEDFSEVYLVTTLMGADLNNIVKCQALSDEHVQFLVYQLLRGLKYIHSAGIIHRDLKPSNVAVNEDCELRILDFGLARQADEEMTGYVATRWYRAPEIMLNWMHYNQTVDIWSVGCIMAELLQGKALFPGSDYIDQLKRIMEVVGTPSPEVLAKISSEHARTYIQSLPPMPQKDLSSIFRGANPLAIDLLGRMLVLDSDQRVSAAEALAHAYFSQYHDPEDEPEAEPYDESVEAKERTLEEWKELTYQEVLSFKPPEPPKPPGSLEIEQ

[Cu+2].[Cu+2].[Cu+2].c1ccc(-c2csc(NCCN(CCNc3nc(-c4ccccn4)cs3)CCNc3nc(-c4ccccn4)cs3)n2)nc1.c1ccc(-c2csc(NCCN(CCNc3nc(-c4ccccn4)cs3)CCNc3nc(-c4ccccn4)cs3)n2)nc1 [[L2Cu3]6+]
% Inhibition Run 1 ([1]; SGK1): 85.6%
% Inhibition Run 2 ([1]; SGK1): 88.5%
% Inhibition, Mean ([1]; SGK1): 87%
mean % activity ([1]; SGK1): 13%
% activity ([1]; SGK1, Run 1): 14.4%
% activity ([1]; SGK1, Run 2): 11.5%
% Inhibition Run 1 ([2]; TAK1): 45.7%
% Inhibition Run 2 ([2]; TAK1): 51.7%
% Inhibition, Mean ([2]; TAK1): 49%
mean % activity ([2]; TAK1): 51%
% activity ([2]; TAK1, Run 1): 54.3%
% activity ([2]; TAK1, Run 2): 48.3%
% Inhibition Run 1 [3]: 46.4%
% Inhibition Run 2 [3]: 48.2%
% Inhibition, Mean [3]: 47%
mean % activity [3]: 53%
% activity ([3]; Run 1): 53.6%
% activity ([3]; Run 2): 51.8%
% Inhibition Run 1 ([4]; ERK2): 12.1%
% Inhibition Run 2 ([4]; ERK2): 8.4%
% Inhibition, Mean ([4]; ERK2): 10%
mean % activity ([4]; ERK2): 90%
% activity ([4]; ERK2, Run 1): 87.9%
% activity ([4]; ERK2, Run 2): 91.6%
% Inhibition Run 1 ([5]; MLK1): 83.6%
% Inhibition Run 2 ([5]; MLK1): 85.4%
% Inhibition, Mean ([5]; MLK1): 85%
mean % activity ([5]; MLK1): 16%
% activity ([5]; MLK1, Run 1): 16.4%
% activity ([5]; MLK1, Run 2): 14.6%
% Inhibition Run 1 [6]: 88.8%
% Inhibition Run 2 [6]: 82.3%
% Inhibition, Mean [6]: 86%
mean % activity [6]: 14%
% activity ([6]; Run 1): 11.2%
% activity ([6]; Run 2): 17.7%
% Inhibition Run 1 [7]: 24.1%
% Inhibition Run 2 [7]: 0.3%
% Inhibition, Mean [7]: 12%
mean % activity [7]: 88%
% activity ([7]; Run 1): 75.9%
% activity ([7]; Run 2): 99.7%
% Inhibition Run 1 ([8]; PRK2): 87.9%
% Inhibition Run 2 ([8]; PRK2): 85.6%
% Inhibition, Mean ([8]; PRK2): 87%
mean % activity ([8]; PRK2): 13%
% activity ([8]; PRK2, Run 1): 12.1%
% activity ([8]; PRK2, Run 2): 14.4%
% Inhibition Run 1 ([9]; SIK2): 88.3%
% Inhibition Run 2 ([9]; SIK2): 90.4%
% Inhibition, Mean ([9]; SIK2): 89%
mean % activity ([9]; SIK2): 11%
% activity ([9]; SIK2, Run 1): 11.7%
% activity ([9]; SIK2, Run 2): 9.6%
% Inhibition Run 1 ([10]; HIPK2): 50.5%
% Inhibition Run 2 ([10]; HIPK2): 45.5%
% Inhibition, Mean ([10]; HIPK2): 48%
mean % activity ([10]; HIPK2): 52%
% activity ([10]; HIPK2, Run 1): 49.5%
% activity ([10]; HIPK2, Run 2): 54.5%

CC(=O)[O-].CC(=O)[O-].CC(=O)[O-].CC(=O)[O-].CC(=O)[O-].CC(=O)[O-].[Zn+2].[Zn+2].[Zn+2].c1ccc(-c2csc(NCCN(CCNc3nc(-c4ccccn4)cs3)CCNc3nc(-c4ccccn4)cs3)n2)nc1.c1ccc(-c2csc(NCCN(CCNc3nc(-c4ccccn4)cs3)CCNc3nc(-c4ccccn4)cs3)n2)nc1 [[L2Zn3]6+]
% Inhibition, Mean ([1]; SGK1): 37%
% Inhibition, Run 1 / Run 2 ([1]; SGK1): 43% and 32%
mean % activity ([1]; SGK1): 63%
% activity ([1]; SGK1, duplicate runs): 57% and 68%
% Inhibition, Mean ([2]; TAK1): 35%
% Inhibition, Run 1 / Run 2 ([2]; TAK1): 34% and 36%
mean % activity ([2]; TAK1): 65%
% activity ([2]; TAK1, duplicate runs): 66% and 64%
% Activation, Mean value [3]: 7%
% Inhibition, Mean [3]: -7%
mean % activity [3]: 107%
% activity ([3]; duplicate runs): 101% and 114%
% Inhibition, Mean ([4]; ERK2): 18%
% Inhibition, Run 1 / Run 2 ([4]; ERK2): 19% and 18%
mean % activity ([4]; ERK2): 82%
% activity ([4]; ERK2, duplicate runs): 81% and 82%
% Inhibition, Mean ([5]; MLK1): 11%
mean % activity ([5]; MLK1): 89%
% activity ([5]; MLK1, duplicate runs): 83% and 96%
% Inhibition, Mean [6]: 47%
% Inhibition, Run 1 / Run 2 [6]: 56% and 39%
mean % activity [6]: 53%
% activity ([6]; duplicate runs): 45% and 61%
% Inhibition, Mean [7]: -0.45%
% Inhibition, Run 1 / Run 2 [7]: 0.2% and -1.1%
mean % activity [7]: 100%
% activity ([7]; duplicate runs): 100% and 101%
% Inhibition, Mean ([8]; PRK2): 71%
% Inhibition, Run 1 / Run 2 ([8]; PRK2): 77% and 65%
mean % activity ([8]; PRK2): 29%
% activity ([8]; PRK2, duplicate runs): 23% and 35%
% Inhibition, Mean ([9]; SIK2): 68%
% Inhibition, Run 1 / Run 2 ([9]; SIK2): 72% and 64%
mean % activity ([9]; SIK2): 32%
% activity ([9]; SIK2, duplicate runs): 29% and 36%
% Inhibition, Mean ([10]; HIPK2): 12%
mean % activity ([10]; HIPK2): 88%
% activity ([10]; HIPK2, duplicate runs): 76% and 100%

Source: publication PMC8222254, “Self-assembly of an anion receptor with metal-dependent kinase inhibition and potent in vitro anti-cancer properties” (Nature Communications, 2021)
